In PubChem BioAssay AID306 (DTP/NCI, 2004) one finds T/C data, which are given here for 18 compounds.

Values joined by “and” are separate entries in the source; they are usually repeats but may differ in a detail not shown here. Equal entries are not always repeated. Toxic doses and inconclusive results are not listed.

The assay concerns BDF1 mice, L1210 Methyl-GAG-resistant leukemia, survival T/C. The assay is described as follows: NCI In Vivo Anticancer Drug Screen. Data for tumor model L1210 Leukemia resistant to Methyl-GAG; NSC 32946 (subcutaneous) in B6D2F1 (BDF1) mice. The following applies: endpoint: mean survival time, higher = longer survival. On the procedure: The antitumor activity of compounds was measured in mice bearing transplantable tumors. Survival or tumor size were measured and the results are expressed as the measurement made in the treated group (T) divided by the measurement made in the vehicle treated control group (C). The tumor model used in this assay is L1210 Leukemia resistant to Methyl-GAG; NSC 32946 (subcutaneous) in B6D2F1 (BDF1) mice

The mark [1] stands for this setting: dose: 2.0 mg/kg/injection, schedule: Q01DX Z (ip), vehicle: carboxymethylcellulose (CMC).
[2] abbreviates: dose: 4.0 mg/kg/injection, schedule: Q01DX Z (ip), vehicle: carboxymethylcellulose (CMC).
[3] abbreviates: dose: 6.25 mg/kg/injection, schedule: Q01DX Z (ip), vehicle: carboxymethylcellulose (CMC).
Where [4] appears, read: dose: 12.5 mg/kg/injection, schedule: Q01DX Z (ip), vehicle: carboxymethylcellulose (CMC).
The mark [5] stands for this setting: dose: 25.0 mg/kg/injection, schedule: Q01DX Z (ip), vehicle: carboxymethylcellulose (CMC).
Setting [6] is: dose: 1.6 mg/kg/injection, schedule: Q01DX Z (ip), vehicle: carboxymethylcellulose (CMC).
The mark [7] stands for this setting: dose: 3.1 mg/kg/injection, schedule: Q01DX Z (ip), vehicle: carboxymethylcellulose (CMC).
The mark [8] stands for this setting: dose: 6.3 mg/kg/injection, schedule: Q01DX Z (ip), vehicle: carboxymethylcellulose (CMC).
Setting [9] is: dose: 50.0 mg/kg/injection, schedule: Q01DX Z (ip), vehicle: carboxymethylcellulose (CMC).
The mark [10] stands for this setting: dose: 100.0 mg/kg/injection, schedule: Q01DX Z (ip), vehicle: carboxymethylcellulose (CMC).
Setting [11] is: dose: 25.0 mg/kg/injection, schedule: Q01DX Z (sc), vehicle: steriod suspending solution.
[12] abbreviates: dose: 62.5 mg/kg/injection, schedule: Q01DX Z (sc), vehicle: steriod suspending solution.
The mark [13] stands for this setting: dose: 100.0 mg/kg/injection, schedule: Q01DX Z (sc), vehicle: steriod suspending solution.
The mark [14] stands for this setting: dose: 400.0 mg/kg/injection, schedule: Q01DX Z (sc), vehicle: steriod suspending solution.

For the compound `Clc1ncnc2nc[nH]c12`, the T/C (dose: 31.25 mg/kg/injection, schedule: Q01DX Z (ip), vehicle: carboxymethylcellulose (CMC)) is 100 % of control; the T/C (dose: 62.5 mg/kg/injection, schedule: Q01DX Z (ip), vehicle: carboxymethylcellulose (CMC)) was 90 % of control; the T/C (dose: 125.0 mg/kg/injection, schedule: Q01DX Z (ip), vehicle: carboxymethylcellulose (CMC)) was 121 % of control.

`OCC1OC(n2cnc3c(=S)nc[nH]c32)C(O)C1O` (stereo not drawn): the T/C under setting [1] was 100 % of control; the T/C under setting [2] was 100 % of control; the T/C (dose: 8.0 mg/kg/injection, schedule: Q01DX Z (ip), vehicle: carboxymethylcellulose (CMC)) is 107 % of control; the T/C (dose: 16.0 mg/kg/injection, schedule: Q01DX Z (ip), vehicle: carboxymethylcellulose (CMC)) was 115 % of control; the T/C (dose: 31.0 mg/kg/injection, schedule: Q01DX Z (ip), vehicle: carboxymethylcellulose (CMC)) is 120 % of control; the T/C (dose: 500.0 mg/kg/injection, schedule: Q01DX Z (ip), vehicle: carboxymethylcellulose (CMC)) was 93 % of control.

`CS(=O)(=O)OCCCCOS(C)(=O)=O`: the T/C (dose: 0.4 mg/kg/injection, schedule: Q01DX Z (ip), vehicle: methylcellulose (MC)) was 102 % of control; the T/C (dose: 1.6 mg/kg/injection, schedule: Q01DX Z (ip), vehicle: methylcellulose (MC)) was 102 % of control; the T/C (dose: 3.2 mg/kg/injection, schedule: Q01DX Z (ip), vehicle: methylcellulose (MC)) was 86 % of control; the T/C (dose: 6.4 mg/kg/injection, schedule: Q01DX Z (ip), vehicle: methylcellulose (MC)) is 88 % of control and 102 % of control.

As for `O=C(O)CCCc1ccc(N(CCCl)CCCl)cc1`, the T/C is, setting by setting: under setting [3], 91 % of control; under setting [4], 98 % of control; under setting [5], 104 % of control.

Regarding `C[n+]1c2ccccc2nc2c(N)cc(N)cc21`, the T/C reads like this: under setting [6], 101 % of control; under setting [7], 102 % of control; under setting [8], 98 % of control and 104 % of control; under setting [4], 104 % of control; under setting [5], 104 % of control.

In the case of `C[C@@H]1C[C@H]2CC[C@H](O2)[C@H](C)C(=O)O[C@@H](C)C[C@@H]2CC[C@@H](O2)[C@@H](C)C(=O)O[C@H](C)C[C@H]2CC[C@H](O2)[C@H](C)C(=O)O[C@@H](C)C[C@@H]2CC[C@@H](O2)[C@@H](C)C(=O)O1`, the T/C is 97 % of control under setting [5]; 91 % of control under setting [9]; 91 % of control under setting [10]; 97 % of control (dose: 200.0 mg/kg/injection, schedule: Q01DX Z (ip), vehicle: carboxymethylcellulose (CMC)).

On to `CC(CCC(C)OS(C)(=O)=O)OS(C)(=O)=O` (stereo not drawn), for which the T/C reads like this: (dose: 5.0 mg/kg/injection, schedule: Q01DX Z (ip), vehicle: carboxymethylcellulose (CMC)) 90 % of control; (dose: 10.0 mg/kg/injection, schedule: Q01DX Z (ip), vehicle: carboxymethylcellulose (CMC)) 87 % of control; (dose: 20.0 mg/kg/injection, schedule: Q01DX Z (ip), vehicle: carboxymethylcellulose (CMC)) 95 % of control.

On to `Nc1ncnc2[nH]ncc12`, for which the T/C by setting is: (dose: 0.8 mg/kg/injection, schedule: Q01DX Z (ip), vehicle: carboxymethylcellulose (CMC)) 102 % of control; under setting [6], 100 % of control; under setting [7], 104 % of control; under setting [3], 106 % of control; under setting [4], 102 % of control; under setting [5], 90 % of control. For the same compound, under setting [9], the T/C was 93 % of control and 96 % of control.

Take `CCCSc1ncnc2nc[nH]c12`: the T/C runs as follows: under setting [8], 107 % of control; under setting [4], 110 % of control; under setting [5], 110 % of control and 118 % of control; under setting [9], 117 % of control and 123 % of control; under setting [10], 110 % of control.

As for `Cc1cc(N(CCCl)CCCl)ccc1N=Nc1ccccc1C(=O)O`, the T/C (dose: 15.0 mg/kg/injection, schedule: Q01DX Z (ip), vehicle: carboxymethylcellulose (CMC)) was 96 % of control; the T/C (dose: 30.0 mg/kg/injection, schedule: Q01DX Z (ip), vehicle: carboxymethylcellulose (CMC)) is 99 % of control; the T/C (dose: 60.0 mg/kg/injection, schedule: Q01DX Z (ip), vehicle: carboxymethylcellulose (CMC)) is 96 % of control.

Regarding `CCOC(N)=O`, the T/C is 99 % of control (dose: 125.0 mg/kg/injection, schedule: Q01DX Z (ip), vehicle: saline); 89 % of control (dose: 250.0 mg/kg/injection, schedule: Q01DX Z (ip), vehicle: saline); 101 % of control (dose: 500.0 mg/kg/injection, schedule: Q01DX Z (ip), vehicle: saline); 90 % of control (dose: 1000.0 mg/kg/injection, schedule: Q01DX Z (ip), vehicle: saline).

With `C[C@]12CCC(=O)C=C1CC[C@@H]1[C@@H]2C(=O)C[C@@]2(C)[C@H]1CC[C@]2(O)C(=O)CO`, the T/C was 100 % of control (dose: 6.25 mg/kg/injection, schedule: Q01DX Z (sc), vehicle: steriod suspending solution); 102 % of control under setting [11]; 121 % of control under setting [12]; 113 % of control under setting [13]; 116 % of control under setting [14].

Regarding `C[C@]12CCC(=O)C=C1CC[C@@H]1[C@@H]2CC[C@@]2(C)[C@H]1CC[C@]2(C)O`, the T/C by setting is: (dose: 16.0 mg/kg/injection, schedule: Q01DX Z (sc), vehicle: steriod suspending solution) 97 % of control; (dose: 32.0 mg/kg/injection, schedule: Q01DX Z (sc), vehicle: steriod suspending solution) 105 % of control; under setting [12], 89 % of control; (dose: 63.0 mg/kg/injection, schedule: Q01DX Z (sc), vehicle: steriod suspending solution) 97 % of control; (dose: 125.0 mg/kg/injection, schedule: Q01DX Z (sc), vehicle: steriod suspending solution) 95 % of control and 101 % of control.

For `Nc1nc(N)c2nc(CNc3ccc(C(=O)NC(CCC(=O)O)C(=O)O)cc3)cnc2n1` (stereo not drawn), the T/C is 98 % of control (dose: 2.0 micrograms/kg/injection, schedule: Q01DX Z (ip), vehicle: alkali diluted with saline); 100 % of control (dose: 4.0 micrograms/kg/injection, schedule: Q01DX Z (ip), vehicle: alkali diluted with saline); 110 % of control (dose: 16.0 micrograms/kg/injection, schedule: Q01DX Z (ip), vehicle: alkali diluted with saline); 88 % of control (dose: 31.0 micrograms/kg/injection, schedule: Q01DX Z (ip), vehicle: alkali diluted with saline); 187 % of control (dose: 63.0 micrograms/kg/injection, schedule: Q01DX Z (ip), vehicle: alkali diluted with saline); 94 % of control (dose: 125.0 micrograms/kg/injection, schedule: Q01DX Z (ip), vehicle: alkali diluted with saline).

As for `CCCCn1cnc2c(=S)nc[nH]c21`, the T/C was 91 % of control under setting [7], 113 % of control under setting [3], 97 % of control under setting [4] and 103 % of control under setting [5].

As to `CS(=O)(=O)OCCCl`, the T/C runs as follows: under setting [4], 89 % of control; under setting [5], 96 % of control; under setting [9], 92 % of control; under setting [10], 113 % of control.

With `Nc1nc(=S)c2[nH]cnc2[nH]1`, the T/C is, setting by setting: (dose: 0.12 mg/kg/injection, schedule: Q01DX Z (ip), vehicle: carboxymethylcellulose (CMC)) 98 % of control; (dose: 0.25 mg/kg/injection, schedule: Q01DX Z (ip), vehicle: carboxymethylcellulose (CMC)) 93 % of control; (dose: 0.5 mg/kg/injection, schedule: Q01DX Z (ip), vehicle: carboxymethylcellulose (CMC)) 96 % of control; under setting [1], 164 % of control and 168 % of control; under setting [2], 118 % of control.

Consider `Clc1ccc(C(c2ccccc2Cl)C(Cl)Cl)cc1` (stereo not drawn), for which the T/C by setting is: (dose: 12.5 mg/kg/injection, schedule: Q01DX Z (sc), vehicle: steriod suspending solution) 105 % of control; under setting [11], 102 % of control; (dose: 50.0 mg/kg/injection, schedule: Q01DX Z (sc), vehicle: steriod suspending solution) 98 % of control; under setting [13], 100 % of control; (dose: 200.0 mg/kg/injection, schedule: Q01DX Z (sc), vehicle: steriod suspending solution) 105 % of control; under setting [14], 101 % of control. Also, the T/C (dose: 800.0 mg/kg/injection, schedule: Q01DX Z (sc), vehicle: steriod suspending solution) was 109 % of control.
